Usually IC50 stands for the concentration at which inhibition is half-maximal. A lower IC50 goes with greater potency. For orientation: inhibition means the change of the read-out against control, counted positive when it falls. A low value points to a response near the control.

The text below walks through data of ChEMBL document CHEMBL3352214, “Studies on indolizines. Evaluation of their biological properties as microtubule-interacting agents and as melanoma targeting compounds” (Eur J Med Chem, 2015).

For one test, the target named is Tubulin. Put plainly: Inhibition of tubulin (unknown origin) polymerization. The test is classed as protein-complex assay, Homo sapiens.
The species entered for a further test is Ovis aries. Put plainly: Inhibition of sheep brain tubulin polymerization at 100 uM by fluorescence assay.
The nature of test [1]: Inhibition of sheep brain tubulin polymerization by fluorescence assay. Also noted: species or system Ovis aries.

Turning to `COc1ccc(C(=O)c2cc(OC)c(OC)c(OC)c2)cc1O` [PHENSTATIN], the IC50 against Tubulin is 3.4 µM; in test [1], 3.43 µM. The inhibition in the test filed under Ovis aries amounted to 99%.
